Test results published in paper PMC3585964, “Tissue Inhibitor of Metalloproteinases-3 Peptides Inhibit Angiogenesis and Choroidal Neovascularization in Mice” (PLoS ONE, 2013).

Key:
[1] = test system: laser-induced CNV in C57BL/6J mice; test: Laser-induced choroidal neovascularization (CNV); type: in vivo, mouse; conditions: intravitreal, immediately after laser burn, 14 days, C57BL6 mice
Procedure: All animal studies were approved by the Animal Care and Use Committee of the Cleveland Clinic (IACUC number ARC-08792) and conformed to the National Institutes of Health Guide for the Care and Use of Animals in Research and the ARVO statement for the use of animals in ophthalmic and vision research. All surgery was performed under ketamine/xylazine anesthesia with maximum effort devoted to minimizing suffering. Laser photocoagulation-induced rupture of Bruch’s membrane was used to generate CNV as previously described. Briefly, 4–5 week old C57BL/6J mice were anesthetized with ketamine hydrochloride (100 mg/kg body weight) and xylazine (10 mg/kg body weight) followed by1% Tropicamide (Alcon laboratories, Inc., Fort Worth, TX) for pupillary dilation. Three burns of 532-nm diode laser photocoagulation (Oculight; Iridex, Mountain View California; 50-µm spot size, 0.1 second duration, 200 mW) were delivered to each retina using a slit lamp delivery system and a hand held coverslip as a contact lens. Burns were performed in the 9, 12 and 3 o’clock positions of the posterior pole of the retina. […] Two weeks later, mice were anesthetized and perfused with fluorescein-labeled dextran (2×10^6 average molecular weight, Sigma Aldrich), choroidal flatmounts were prepared and CNV area measured. […]
Five mice were used for each dose of peptide, with three burns in each eye (n = 15–18 successful burns in each group). For quantitative analysis of lesion intensity and size, CNV images were batch processed using a custom macro generated in Image-Pro Plus 5.1 (Media Cybernetics, Silver Spring, MD). […] Mean intensity (range between 10–255 gray levels), perimeter, area, and mean diameter (pixels) were calculated for each ROI and exported to excel. […]
Figure 7 Inhibition of laser-induced CNV by TIMP-3 peptides. […] Effect of Tail peptides on CNV was evaluated by Fluorescein angiogram and Scanning Laser Ophthalmoscopy (SLO). […] CNV lesion size (area X density) was calculated for each dose of T3N-peptide (Fig. 7g), Loop6-peptide (Fig. 7h) and Tail-peptide (fig. 7i).

[2] = test system: VEGFR-1 (Flt-1)/Fc chimera binding to VEGF; test: Competitive ELISA, binding of sVEGFR-1/Fc to immobilized VEGF; set-up: species or system human; conditions: 50 ng/ml sVEGFR-1 (Flt-1)
Procedure: 96 well EIA/RIA strip plates (COSTAR) were coated with 80 ng/ml recombinant VEGF overnight at 4°C, washed and blocked with blocking buffer (1% BSA and 5% sucrose) overnight at 4°C. Series of dilutions were prepared for recombinant proteins representing WT-TIMP-3, NT2:CT3 and N-T3 in PBS or synthetic peptides corresponding to T3-loop 5, T3-loop 6, T3-N or T3-tail peptides in 0.5 M Tris-HCl (pH 7.5). The diluents were mixed with 50 ng/ml recombinant human VEGFR-2 (KDR/Fc chimera, recombinant human VEGFR-1 (Flt-1)/Fc chimera (R&D Systems, Minneapolis, MN) or control human lgG (Sigma Aldrich, St Louis, MO). The mixtures were then added to the VEGF-coated well in a final volume of 100 µL in PBS and incubated for 2 hours at room temperature. Bound VEGFR-2 was detected by HRP-conjugated anti-human lgG(Fc specific) (1∶1000).

| Sequence | Inhibition of laser-induced CNV (overall statement) [1] | Effect of synthetic peptides on VEGF binding to VEGFR-1 (in words) [2] | Inhibition of laser-induced CNV (overall statement) ([1]; listed as N-terminal) |
| --- | --- | --- | --- |
| KIKSCYYLPCFVTS [T3-loop 5] | no angio-inhibitory activity in vitro or in vivo | unable to inhibit sVEGFR-1-VEGF complexes | – |
| RGFTKMPHVQYIHTEASESL [T3-N peptide] | not N-peptide inhibit laser-induced CNV | unable to inhibit sVEGFR-1-VEGF complexes | no angio-inhibitory activity in vitro or in vivo |
